{
  "source": "patent US20190330167A1",
  "about": "“ACTIVATORS OF HIV LATENCY” (priority 2016, published 2019)",
  "key": {"[1]": {"tested_on": "HIV-1 long terminal repeat (LTR)-driven luciferase reporter gene in FlipIn.FM HEK293 cells", "assay": "cells", "type": "cell-based", "details": "for EC50: Human immunodeficiency virus 1, HEK293, HIV-LTR driven latent reporter, 11-point, 2-fold dilution series, highest concentration 40 μM, read-out: Latent reporter Av EC50; for fold change in HIV-1 gene expression over the unstimulated baseline: FlipIn.FM model, alone at 10 μM and in combination, 48 hrs post treatment", "protocol": "FIG. 44. […] The FlipIn.FM model of HIV-1 latency was treated with JQ1 (+) and DP#14 (Compound 7) alone at 10 μM and in combination, and the HIV-1 gene expression measured 48 hrs post treatment. Error bars represent standard deviation of n=3 experiments. OPTI represents media alone, without DP#14.\nFIG. 46. […] The FlipIn.FM model of HIV-1 latency was treated with PFI-1 and DP#14 alone at 10 μM and in combination, and the HIV-1 gene expression measured 48 hrs post treatment. Error bars represent standard deviation of n=3 experiments. OPTI represents media alone, without DP#14.\nExplicitly, HEK293 derived FlipIn-FM and FlipIn-RV dual reporter cells each include a single stable HIV-1 long terminal repeat (LTR)-driven luciferase reporter genes, with a second complimentary non-HIV (off-target) luciferase reporter. These cell lines model post integration latency and read-through transcription by expressing a low level of HIV-1 Tat protein via a native Internal Ribosome Entry Site (IRES) found within Tat, from a chimeric cellular-tat gene cassette. FlipIn-FM and FlipIn-RV clones were chosen for low basal levels of LTR activity and high responsiveness to Tat as well as many Latency Reversing Agents (LRAs).\nThe dual reporter cell lines contain three stably integrated constructs that together allow for detection of novel LRAs, capable of potent and specific HIV reactivation. The FlipIn.FM line contains a proviral LTR-driven nef/CBR reporter fusion gene, allowing for detection of viral gene expression. A second CMV-driven CBG luciferase reporter allows for detection of off target drug effects, including non-specific activation and drug toxicity. The third construct contains the first coding exon of HIV-1 tat, within human Growth Hormone (hGH) as a chimeric gene, expressing HIV-1 Tat protein from an IRES mechanism that underlies the tat exon. This construct models read-through transcription and the low level of Tat protein expression that occurs during post integration latency. The counter screening reverse cell line, FlipIn.RV, contains the same three components with the Click Beetle Luciferase genes in the opposite orientation (LTR-CBG and CMV-CBR) for counter screening.\nCompounds were evaluated in an 11-point titration using normal CMV-CBG/LTR-CBR reporter cell line and an 11 point reverse CMV-CBR/LTR-CBG reporter cell line.\nThe FlipIn cell lines were therefore designed with a dual purpose, to detect novel compounds that reactivate HIV-1 and to also screen out compounds that behaved in a largely non-specific manner. To achieve the latter, the cell lines contain an “off target” reporter gene construct, driven by the unrelated CMV-IE promoter, that allows for the detection of drug mediated off target effects including global gene activation as well as possible toxicity.\nThe HIV-LTR driven latent reporter gene identifies the HIV-specific activation, and the term “global reporter” is interchangeable with “off target reporter” and refers to the unrelated CMV-IE promoter driven reporter gene, which is used as a surrogate for global gene activation. […] The highest concentration tested here was 40 μM."}, "[2]": {"tested_on": "HIV-1 gene expression in J.Lat10.6 latently infected T-cell line", "assay": "cells", "type": "cell-based", "details": "for IC50: Human immunodeficiency virus 1, J-Lat 10.6, 48 h, read-out: IC50 for reactivation of HIV-1 gene expression; for percent of the cells treated with reactivated HIV-1 gene expression: J.Lat10.6 model, alone at 10 μM and in combination, 48 hrs post treatment", "protocol": "The J.Lat10.6 latently infected T-cell line was treated with 4 compounds of the present invention, DP#6 (Compound 41), DP#14 (Compound 7), DP#18 (Compound 65), and DP#19 (Compound 73) and reactivated for 48 hrs. HIV-1 reactivation was measured by flowcytometry for GFP expression. Error bars represent standard deviation of n=3 experiments.\nFIG. 45. […] The J.Lat10.6 model of HIV-1 latency was treated with JQ1 (+) and DP#14 (Compound 7) alone at 10 μM and in combination, and the HIV-1 gene expression measured 48 hrs post treatment. Error bars represent standard deviation of n=3 experiments. OPTI represents media alone, without DP#14.\nFIG. 47. […] The J.Lat10.6 model of HIV-1 latency was treated with PFI-1 and DP#14 alone at 10 μM and in combination, and the HIV-1 gene expression measured 48 hrs post treatment. Error bars represent standard deviation of n=3 experiments. OPTI represents media alone, without DP#14.\nCompounds were also evaluated in a dose ranging titration with HIV latently infected cell lines (J.Lat 6.3 and 10.6). The specificity of the selected compounds in these cell line models, were measured by inserting a CMV-DS.Red reporter into these cells to co-ordinately measure HIV specific LTR-Green fluorescent protein and non-specific DS.Red expression during FACS analysis.\nThe J.Lat model of HIV-1 latency is a well-established model used widely and is described in detail in the following paper:\nHIV reproducibly establishes a latent infection after acute infection of T cells in vitro, Eric Verdin et al, The EMBO Journal Vol. 22 No. 8 pp 1868-1877, 2003"}, "[3]": {"tested_on": "J.Lat10.6 T-cell line", "assay": "Dose dependent toxicity in the J.Lat model", "type": "cell-based", "details": "for concentration above which notable toxicity: dose dependent toxic effect"}, "[4]": {"tested_on": "latent HIV in resting memory CD4+ T cells isolated by leukapheresis from HIV+ donors on antiretroviral therapy", "type": "cell-based, HIV-1", "details": "72 hrs", "text": "FIG. 41a. […] Resting memory CD4+ T cells isolated by leukapheresis from HIV+ donors on antiretroviral therapy were reactivated for 72 hrs using known LRAs including vorinostat (Vor) also known as suberanilohydroxamic acid, another hydroxamic acid panobinostat (Pan), and the depsipeptide Romidepsin (Rom) that are all HDACi, together with JQ1 (+) which is a thienotriazolodiazepine known to inhibit the BET family of bromodomain proteins including BRD2, BRD3, and BRD4, and compared with compounds according to the present invention DP#6 (Compound 41), DP#14 (Compound 7), and DP#16 (Compound 64).\nFIG. 41c. […] Resting memory CD4+ T cells isolated by leukapheresis from HIV+ donors on antiretroviral therapy were reactivated for 72 hrs using known (vorinostat, Vor; panobinostat, Pan; romidepsin, Rom; and JQ1 (+)) and compounds according to the present invention (DP#6 (Compound 41), DP#14 (Compound 7), and DP#16 (Compound 64)).\nFIG. 42c. […] Resting memory CD4+ T cells isolated by leukapheresis from HIV+ donors on antiretroviral therapy were reactivated for 72 hrs using known (JQ1 (+)) and compounds according to the present invention (DP#14 (Compound 7)) alone and in combination, and HIV-1 RNA detected through qPCR.\nTotal peripheral blood mononuclear cells (PBMC) were stored frozen in liquid nitrogen and prior to use, vials of frozen cells (0.5×10^8 PBMCs/vial or 1×10^8 PBMCs/vial) were quick thawed in a 42° C. water bath. Cells were promptly transferred to a 15 mL tube with 5 mL FBS dropwise then, then 6 mL of RF10 was added. Cells were pelleted at 300 g for 10 min at room temperature. Following aspiration, the cells were resuspended in RF10, pooled into a 50 mL tube which was topped up with RF10. PBMC were pelleted again at 300 g for 10 min at room temperature. Following aspiration, the cells were resuspended in PBS(−/−) and counted. CD4+ T cells were then isolated from 4×10^8 PBMCs that were pelleted and resuspended in PBS(−/−) at 1×10^7 cells/40 μL. 10 μL of CD4+ T cell Biotin-Antibody cocktail (Miltenyi Biotec) for every 1×10^7 cells was added and the mix refrigerated for 5 min. 30 μL of PBS(−/−) for every 1×10^7 cells was added, and 20 μL of the CD4+ T cell MicroBeads for every 1×10^7 cells was added and the mix refrigerated for 10 min. Unlabelled CD4+ T cells were then isolated by negative selection using magnetic separation. CD4+ T cells were then counted before being diluted to 4×10^6 cells/500 μL in RF10 for each condition and seeded into a 48 well plate.\nLatent HIV was reactivated in the presence of the HIV integrase inhibitor Raltagravir (Ral) to prevent any further rounds of infection. Ral was made to [2 μM] in RF10+IL-2 (2 U/mL), and used to make 1 mL preparation of each drug up at [×2]. 500 μL of the [×2 Ral/IL-2/drug] was then added to the appropriate wells containing cells. Cells were transported to PC3 and incubated for 72 hrs.\nFollowing reactivation, 800 μL of cell supernatant was transferred to labeled 1.5 mL screwcap tubes, pelletted at 800 g for 10 min then transferred to a second set of tubes and frozen for possible use at a later date. 800 μL of PBS(−/−) was added to each well to mix the cells and 50 μL of cells transferred to another set of tubes for live/dead staining and flow cytometry. Cells were pelleted at 400 g for 10 min, the media aspirated and cells resuspended in 100 μL of a [×1] APC-cy7 live/dead stain (Life technologies)."}, "[5]": {"details": "normalized between unstimulated baseline and PMA positive control as 100%, concentration not given"}},
  "note": "Read-outs that look alike come from different tables or passages of the source.",
  "data": [
    {"smiles": "Cc1cnc(NC(=O)CCCOc2ccccc2)s1", "note": "[Compound 41]", "values": [
      {"measurement": "EC50", "setting": "[1]", "result": 14000, "unit": "nM"},
      {"measurement": "IC50", "setting": "[2]", "result": "~16500", "unit": "nM"},
      {"measurement": "dose dependent toxicity", "setting": "[3]; dosed as high as 40 μM", "result": "no such toxicity"},
      {"measurement": "induction of HIV-1 gene expression, % of the normalized value", "setting": "[4]; at 5 μM, normalized between unstimulated baseline and PMA as 100%", "result": 25, "unit": "%"}
    ]},
    {"smiles": "Cc1ccc(N2CCN(C(=O)Nc3ncc(Cl)s3)CC2)cc1Cl", "note": "[Compound 64]", "values": [
      {"measurement": "EC50", "setting": "[1]", "result": 220, "unit": "nM"},
      {"measurement": "activation of HIV-1 gene expression in leukapheresis samples", "setting": "[4]; at 100 nM, n=4 or n=5 donors", "result": "activation in only one patient"}
    ]},
    {"smiles": "Cc1ccc(N2CCN(C(=O)Nc3ncc(C#N)s3)CC2)cc1Cl", "note": "[Compound 65]", "values": [
      {"measurement": "EC50", "setting": "[1]", "result": 330, "unit": "nM"},
      {"measurement": "IC50", "setting": "[2]", "result": 650, "unit": "nM"},
      {"measurement": "concentration above which notable toxicity", "setting": "[3]", "result": "above 1.25 μM"}
    ]},
    {"smiles": "Cc1cnc(NC(=O)N2CCN(c3cnc(Cl)c(Cl)c3)CC2)s1", "note": "[Compound 73]", "values": [
      {"measurement": "EC50", "setting": "[1]", "result": 280, "unit": "nM"},
      {"measurement": "IC50", "setting": "[2]", "result": "< 110", "unit": "nM"},
      {"measurement": "concentration above which notable toxicity", "setting": "[3]", "result": "> 156", "unit": "nM"}
    ]},
    {"smiles": "Cc1sc2c(c1C)C(c1ccc(Cl)cc1)=N[C@@H](CC(=O)OC(C)(C)C)c1nnc(C)n1-2", "note": "[JQ1 (+), reference compound]", "values": [
      {"measurement": "fold change in HIV-1 gene expression over the unstimulated baseline", "setting": "[1]", "result": 12.8, "unit": "fold"},
      {"measurement": "percent of the cells treated with reactivated HIV-1 gene expression", "setting": "[2]", "result": 22.8, "unit": "%"},
      {"measurement": "induction of HIV-1 gene expression, % of the normalized value", "setting": "[4]; [5]", "result": 39, "unit": "%"}
    ]},
    {"smiles": "COc1ccccc1S(=O)(=O)Nc1ccc2c(c1)CN(C)C(=O)N2", "note": "[PFI-1, reference compound]", "values": [
      {"measurement": "fold change in HIV-1 gene expression over the unstimulated baseline", "setting": "[1]", "result": 3.6, "unit": "fold"},
      {"measurement": "percent of the cells treated with reactivated HIV-1 gene expression", "setting": "[2]", "result": 20.6, "unit": "%"}
    ]},
    {"smiles": "Cc1[nH]c2ccccc2c1CCNCc1ccc(/C=C/C(=O)NO)cc1", "note": "[Panabinostat, reference compound]", "values": [
      {"measurement": "induction of HIV-1 gene expression, % of the normalized value", "setting": "[4]; [5]", "result": 57, "unit": "%"}
    ]},
    {"smiles": "C/C=C1\\NC(=O)[C@H]2CSSCC/C=C/[C@H](CC(=O)N[C@H](C(C)C)C(=O)N2)OC(=O)[C@H](C(C)C)NC1=O", "note": "[Romidepsin, reference compound]", "values": [
      {"measurement": "induction of HIV-1 gene expression, % of the normalized value", "setting": "[4]; [5]", "result": 67, "unit": "%"}
    ]},
    {"smiles": "O=C(CCCCCCC(=O)Nc1ccccc1)NO", "note": "[Vorinostat, suberanilohydroxamic acid, reference compound]", "values": [
      {"measurement": "induction of HIV-1 gene expression, % of the normalized value", "setting": "[4]; [5]", "result": 58, "unit": "%"}
    ]}
  ]
}
